Assay results as given in paper PMC9696374, “Antiandrogenic Effects of a Polyphenol in Carex kobomugi through Inhibition of Androgen Synthetic Pathway and Downregulation of Androgen Receptor in Prostate Cancer Cell Lines” (International Journal of Molecular Sciences, 2022).

Molecular target: T1, dehydrogenase/reductase SDR family member 11 (DHRS11) (Homo sapiens, UniProt Q6UWP2)
T1 construct: Homogenous recombinant DHRS11
T1 sequence (Q6UWP2 31-260): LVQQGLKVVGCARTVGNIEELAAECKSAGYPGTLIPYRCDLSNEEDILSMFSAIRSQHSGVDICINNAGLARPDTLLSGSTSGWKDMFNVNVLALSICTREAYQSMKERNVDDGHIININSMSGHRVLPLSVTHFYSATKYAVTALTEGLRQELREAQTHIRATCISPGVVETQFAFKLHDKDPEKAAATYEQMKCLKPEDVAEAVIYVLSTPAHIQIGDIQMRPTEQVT
Experiment: reductase activity of recombinant DHRS11, NADPH absorbance at […] nm, isatin substrate
Assay type: biochemical

## Cc1c(O)cc(O)c2c(=O)cc(/C=C/c3ccc(O)cc3)oc12 [VI, 5,7-dihydroxy-8-methyl-2-[2-(4-hydroxyphenyl)ethenyl]-4H-1-benzopyran-4-one]
  IC50: 350 ± 30 nM
